# Test results published in ChEMBL document CHEMBL4507288 (2021).
# Experiments:
# [1] = tested on: Tyrosine-protein kinase ABL1 (Homo sapiens), P00519 [Q252H]; settings: Compound concentration 1000.0 nM
# [2] = molecular target: Tyrosine-protein kinase ABL1 (Homo sapiens) (UniProt P00519); settings: Compound concentration 1000.0 nM
# [3] = molecular target: Ankyrin repeat and protein kinase domain-containing protein 1 (Homo sapiens) (UniProt Q8NFD2); settings: Compound concentration 1000.0 nM
# [4] = tested on: Serine/threonine-protein kinase B-raf (Homo sapiens), P15056 [V600E]; settings: Compound concentration 1000.0 nM
# [5] = molecular target: Cyclin-dependent kinase 13 (Homo sapiens) (UniProt Q14004); settings: Compound concentration 1000.0 nM
# [6] = molecular target: Cyclin-dependent kinase 7 (Homo sapiens) (UniProt P50613); settings: Compound concentration 1000.0 nM
# [7] = molecular target: Cyclin-dependent kinase-like 1 (Homo sapiens) (UniProt Q00532); settings: Compound concentration 1000.0 nM
# [8] = molecular target: Death-associated protein kinase 3 (Homo sapiens) (UniProt O43293); settings: Compound concentration 1000.0 nM
# [9] = molecular target: Ephrin type-A receptor 6 (Homo sapiens) (UniProt Q9UF33); settings: Compound concentration 1000.0 nM
# [10] = molecular target: Ephrin type-B receptor 3 (Homo sapiens) (UniProt P54753); settings: Compound concentration 1000.0 nM
# [11] = molecular target: Receptor tyrosine-protein kinase erbB-4 (Homo sapiens) (UniProt Q15303); settings: Compound concentration 1000.0 nM
# [12] = molecular target: Fibroblast growth factor receptor 3 (Homo sapiens) (UniProt P22607); settings: Compound concentration 1000.0 nM
# [13] = molecular target: Tyrosine-protein kinase Fgr (Homo sapiens) (UniProt P09769); settings: Compound concentration 1000.0 nM
# [14] = molecular target: Vascular endothelial growth factor receptor 1 (Homo sapiens) (UniProt P17948); settings: Compound concentration 1000.0 nM
# [15] = tested on: Receptor-type tyrosine-protein kinase FLT3 (Homo sapiens), P36888 [UNDEFINED MUTATION]; settings: Compound concentration 1000.0 nM
# [16] = tested on: Receptor-type tyrosine-protein kinase FLT3 (Homo sapiens), P36888 [N841I]; settings: Compound concentration 1000.0 nM
# [17] = molecular target: Inhibitor of nuclear factor kappa-B kinase subunit beta (Homo sapiens) (UniProt O14920); settings: Compound concentration 1000.0 nM
# [18] = molecular target: Inhibitor of nuclear factor kappa-B kinase subunit epsilon (Homo sapiens) (UniProt Q14164); settings: Compound concentration 1000.0 nM
# [19] = molecular target: Insulin receptor (Homo sapiens) (UniProt P06213); settings: Compound concentration 1000.0 nM
# [20] = molecular target: Serine/threonine-protein kinase MAK (Homo sapiens) (UniProt P20794); settings: Compound concentration 1000.0 nM
# [21] = molecular target: Mitogen-activated protein kinase kinase kinase kinase 3 (Homo sapiens) (UniProt Q8IVH8); settings: Compound concentration 1000.0 nM
# [22] = molecular target: MAP kinase-activated protein kinase 5 (Homo sapiens) (UniProt Q8IW41); settings: Compound concentration 1000.0 nM
# [23] = molecular target: MAP/microtubule affinity-regulating kinase 3 (Homo sapiens) (UniProt P27448); settings: Compound concentration 1000.0 nM
# [24] = molecular target: Dual specificity mitogen-activated protein kinase kinase 1 (Homo sapiens) (UniProt Q02750); settings: Compound concentration 1000.0 nM
# [25] = molecular target: Myosin light chain kinase family member 4 (Homo sapiens) (UniProt Q86YV6); settings: Compound concentration 1000.0 nM
# [26] = molecular target: Mitogen-activated protein kinase kinase kinase 14 (Homo sapiens) (UniProt Q99558); settings: Compound concentration 1000.0 nM
# [27] = molecular target: Serine/threonine-protein kinase NIM1 (Homo sapiens) (UniProt Q8IY84); settings: Compound concentration 1000.0 nM
# [28] = molecular target: Platelet-derived growth factor receptor alpha (Homo sapiens) (UniProt P16234); settings: Compound concentration 1000.0 nM
# [29] = molecular target: Phosphatidylinositol 4-phosphate 3-kinase C2 domain-containing subunit beta (Homo sapiens) (UniProt O00750); settings: Compound concentration 1000.0 nM
# [30] = molecular target: Phosphatidylinositol 5-phosphate 4-kinase type-2 gamma (Homo sapiens) (UniProt Q8TBX8); settings: Compound concentration 1000.0 nM
# [31] = molecular target: cAMP-dependent protein kinase catalytic subunit alpha (Homo sapiens) (UniProt P17612); settings: Compound concentration 1000.0 nM
# [32] = molecular target: Serine/threonine-protein kinase N1 (Homo sapiens) (UniProt Q16512); settings: Compound concentration 1000.0 nM
# [33] = molecular target: Serine/threonine-protein kinase N2 (Homo sapiens) (UniProt Q16513); settings: Compound concentration 1000.0 nM
# [34] = molecular target: Protein kinase C eta type (Homo sapiens) (UniProt P24723); settings: Compound concentration 1000.0 nM
# [35] = molecular target: Rho-associated protein kinase 2 (Homo sapiens) (UniProt O75116); settings: Compound concentration 1000.0 nM
# [36] = molecular target: Ribosomal protein S6 kinase alpha-2 (Homo sapiens) (UniProt Q15349); settings: Compound concentration 1000.0 nM
# [37] = molecular target: Serine/threonine-protein kinase Sgk1 (Homo sapiens) (UniProt O00141); settings: Compound concentration 1000.0 nM
# [38] = molecular target: Serine/threonine-protein kinase 33 (Homo sapiens) (UniProt Q9BYT3); settings: Compound concentration 1000.0 nM
# [39] = molecular target: Serine/threonine-protein kinase TAO2 (Homo sapiens) (UniProt Q9UL54); settings: Compound concentration 1000.0 nM
# [40] = molecular target: Dual specificity testis-specific protein kinase 1 (Homo sapiens) (UniProt Q15569); settings: Compound concentration 1000.0 nM
# [41] = molecular target: Serine/threonine-protein kinase tousled-like 2 (Homo sapiens) (UniProt Q86UE8); settings: Compound concentration 1000.0 nM
# [42] = molecular target: Tyrosine-protein kinase receptor TYRO3 (Homo sapiens) (UniProt Q06418); settings: Compound concentration 1000.0 nM
# [43] = molecular target: Wee1-like protein kinase (Homo sapiens) (UniProt P30291); settings: Compound concentration 1000.0 nM
# [44] = molecular target: 5-hydroxytryptamine receptor 1A (Homo sapiens, UniProt P08908); assay: GPCRScan assay: inhibition of 5-HT1A; design: radioligand conc. used [nm] 0.5 – 1.0, parental cells stable CHO
# [45] = molecular target: Sigma non-opioid intracellular receptor 1 (Homo sapiens, UniProt Q99720); assay: GPCRScan assay: inhibition of Sigma 1; design: radioligand conc. used [nm] 4.0 – 5.0, parental cells HEKT
# Sequence of Ribosomal protein S6 kinase alpha-2 (Homo sapiens) (Q15349 whole entry): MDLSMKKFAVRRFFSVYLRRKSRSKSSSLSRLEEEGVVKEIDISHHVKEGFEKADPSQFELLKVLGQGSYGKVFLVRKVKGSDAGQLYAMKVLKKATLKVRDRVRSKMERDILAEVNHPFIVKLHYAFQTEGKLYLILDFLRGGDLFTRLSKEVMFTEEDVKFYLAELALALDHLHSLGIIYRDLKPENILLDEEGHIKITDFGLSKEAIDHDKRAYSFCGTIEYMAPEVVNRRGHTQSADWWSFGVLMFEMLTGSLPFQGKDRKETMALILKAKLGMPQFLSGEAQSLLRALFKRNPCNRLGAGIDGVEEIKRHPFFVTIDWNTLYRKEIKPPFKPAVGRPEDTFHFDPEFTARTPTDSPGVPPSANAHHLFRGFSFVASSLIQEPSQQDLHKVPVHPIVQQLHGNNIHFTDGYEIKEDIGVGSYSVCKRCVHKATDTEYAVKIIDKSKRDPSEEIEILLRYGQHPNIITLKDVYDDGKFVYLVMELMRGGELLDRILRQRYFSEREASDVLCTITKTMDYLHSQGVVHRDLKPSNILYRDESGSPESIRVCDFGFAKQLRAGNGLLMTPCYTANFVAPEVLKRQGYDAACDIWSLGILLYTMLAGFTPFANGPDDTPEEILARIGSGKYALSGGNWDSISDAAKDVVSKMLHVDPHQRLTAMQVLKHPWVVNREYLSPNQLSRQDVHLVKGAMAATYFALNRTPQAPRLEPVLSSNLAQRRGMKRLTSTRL
# Sequence of Rho-associated protein kinase 2 (Homo sapiens) (O75116 whole entry, looked up): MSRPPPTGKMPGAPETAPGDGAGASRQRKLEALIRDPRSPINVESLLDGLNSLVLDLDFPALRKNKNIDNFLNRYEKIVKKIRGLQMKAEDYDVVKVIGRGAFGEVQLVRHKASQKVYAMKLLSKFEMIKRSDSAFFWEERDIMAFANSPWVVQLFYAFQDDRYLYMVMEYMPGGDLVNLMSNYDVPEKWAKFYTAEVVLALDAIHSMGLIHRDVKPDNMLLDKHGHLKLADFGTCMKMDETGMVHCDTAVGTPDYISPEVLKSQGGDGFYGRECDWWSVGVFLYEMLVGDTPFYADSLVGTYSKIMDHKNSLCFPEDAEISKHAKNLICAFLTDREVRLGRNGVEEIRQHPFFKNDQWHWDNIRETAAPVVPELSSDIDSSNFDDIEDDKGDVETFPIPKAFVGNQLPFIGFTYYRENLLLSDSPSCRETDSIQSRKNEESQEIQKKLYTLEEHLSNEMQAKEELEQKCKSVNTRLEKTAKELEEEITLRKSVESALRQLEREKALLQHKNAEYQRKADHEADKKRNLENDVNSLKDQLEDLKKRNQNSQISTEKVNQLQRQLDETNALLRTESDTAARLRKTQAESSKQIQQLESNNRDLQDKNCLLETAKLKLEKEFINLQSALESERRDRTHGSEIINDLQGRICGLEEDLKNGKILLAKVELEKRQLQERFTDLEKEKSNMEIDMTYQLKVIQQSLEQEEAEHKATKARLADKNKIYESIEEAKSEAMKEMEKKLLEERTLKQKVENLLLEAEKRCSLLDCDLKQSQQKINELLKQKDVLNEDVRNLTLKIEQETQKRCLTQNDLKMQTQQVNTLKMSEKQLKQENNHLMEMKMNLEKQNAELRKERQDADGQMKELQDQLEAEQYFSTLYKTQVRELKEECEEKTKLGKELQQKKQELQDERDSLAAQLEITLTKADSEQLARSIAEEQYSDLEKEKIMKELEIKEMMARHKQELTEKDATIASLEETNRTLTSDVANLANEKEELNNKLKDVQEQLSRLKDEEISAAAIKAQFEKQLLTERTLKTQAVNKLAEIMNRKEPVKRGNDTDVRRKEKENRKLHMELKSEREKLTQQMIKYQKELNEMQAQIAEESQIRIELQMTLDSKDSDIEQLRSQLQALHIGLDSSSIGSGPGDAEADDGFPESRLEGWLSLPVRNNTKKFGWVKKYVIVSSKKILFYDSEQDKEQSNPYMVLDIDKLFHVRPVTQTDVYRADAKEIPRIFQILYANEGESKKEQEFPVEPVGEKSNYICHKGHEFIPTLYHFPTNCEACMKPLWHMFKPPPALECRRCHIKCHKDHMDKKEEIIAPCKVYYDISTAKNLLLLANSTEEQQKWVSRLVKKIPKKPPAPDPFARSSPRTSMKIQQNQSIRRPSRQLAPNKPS
# Sequence of Phosphatidylinositol 5-phosphate 4-kinase type-2 gamma (Homo sapiens) (Q8TBX8 whole entry): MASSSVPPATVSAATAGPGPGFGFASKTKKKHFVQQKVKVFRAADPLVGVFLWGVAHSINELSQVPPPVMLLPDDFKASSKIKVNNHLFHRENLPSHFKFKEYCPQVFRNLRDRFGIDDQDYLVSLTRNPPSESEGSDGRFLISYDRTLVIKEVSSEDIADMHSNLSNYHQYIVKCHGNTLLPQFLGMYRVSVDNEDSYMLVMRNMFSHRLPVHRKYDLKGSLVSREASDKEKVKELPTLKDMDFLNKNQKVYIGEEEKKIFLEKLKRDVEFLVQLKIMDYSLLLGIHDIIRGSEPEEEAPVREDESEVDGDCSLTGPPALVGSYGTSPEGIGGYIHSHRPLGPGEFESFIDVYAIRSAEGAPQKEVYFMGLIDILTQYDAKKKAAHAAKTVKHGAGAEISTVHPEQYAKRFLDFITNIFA
# Sequence of Serine/threonine-protein kinase tousled-like 2 (Homo sapiens) (Q86UE8 whole entry, looked up): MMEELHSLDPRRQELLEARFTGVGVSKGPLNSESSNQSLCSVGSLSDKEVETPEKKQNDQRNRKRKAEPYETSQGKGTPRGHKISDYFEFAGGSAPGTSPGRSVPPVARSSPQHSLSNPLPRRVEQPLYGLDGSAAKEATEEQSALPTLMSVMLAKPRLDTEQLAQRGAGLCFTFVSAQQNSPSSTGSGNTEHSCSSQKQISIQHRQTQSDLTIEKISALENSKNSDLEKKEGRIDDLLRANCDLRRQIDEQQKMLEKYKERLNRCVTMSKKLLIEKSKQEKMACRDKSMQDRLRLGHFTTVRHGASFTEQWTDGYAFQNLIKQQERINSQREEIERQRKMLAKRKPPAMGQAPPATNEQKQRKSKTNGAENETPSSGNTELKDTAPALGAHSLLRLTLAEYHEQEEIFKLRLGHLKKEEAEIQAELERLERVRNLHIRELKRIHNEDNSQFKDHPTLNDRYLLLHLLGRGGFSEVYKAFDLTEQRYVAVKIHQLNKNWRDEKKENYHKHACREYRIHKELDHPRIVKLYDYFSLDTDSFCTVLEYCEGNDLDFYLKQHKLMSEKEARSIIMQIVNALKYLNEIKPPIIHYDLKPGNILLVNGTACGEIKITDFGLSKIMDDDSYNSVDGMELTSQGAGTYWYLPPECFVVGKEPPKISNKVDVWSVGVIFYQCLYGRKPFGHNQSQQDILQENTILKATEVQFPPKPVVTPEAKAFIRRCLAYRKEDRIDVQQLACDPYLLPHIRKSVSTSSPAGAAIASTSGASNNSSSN
# Sequence of Tyrosine-protein kinase Fgr (Homo sapiens) (P09769 2-529 limits assumed): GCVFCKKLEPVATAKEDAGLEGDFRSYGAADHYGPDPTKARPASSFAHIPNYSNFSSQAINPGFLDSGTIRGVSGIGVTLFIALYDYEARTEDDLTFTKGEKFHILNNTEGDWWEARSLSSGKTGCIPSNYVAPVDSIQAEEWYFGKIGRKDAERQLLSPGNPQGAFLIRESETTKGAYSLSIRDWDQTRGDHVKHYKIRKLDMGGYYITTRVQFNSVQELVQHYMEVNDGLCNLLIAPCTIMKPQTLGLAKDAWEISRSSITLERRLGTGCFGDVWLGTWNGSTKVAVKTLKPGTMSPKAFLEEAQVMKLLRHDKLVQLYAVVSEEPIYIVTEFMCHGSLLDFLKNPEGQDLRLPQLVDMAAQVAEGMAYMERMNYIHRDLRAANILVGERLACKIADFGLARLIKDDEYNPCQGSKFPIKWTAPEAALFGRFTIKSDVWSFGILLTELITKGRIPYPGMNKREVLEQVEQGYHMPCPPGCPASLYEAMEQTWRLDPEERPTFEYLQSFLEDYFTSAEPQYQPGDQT
# Sequence of Dual specificity testis-specific protein kinase 1 (Homo sapiens) (Q15569 whole entry, looked up): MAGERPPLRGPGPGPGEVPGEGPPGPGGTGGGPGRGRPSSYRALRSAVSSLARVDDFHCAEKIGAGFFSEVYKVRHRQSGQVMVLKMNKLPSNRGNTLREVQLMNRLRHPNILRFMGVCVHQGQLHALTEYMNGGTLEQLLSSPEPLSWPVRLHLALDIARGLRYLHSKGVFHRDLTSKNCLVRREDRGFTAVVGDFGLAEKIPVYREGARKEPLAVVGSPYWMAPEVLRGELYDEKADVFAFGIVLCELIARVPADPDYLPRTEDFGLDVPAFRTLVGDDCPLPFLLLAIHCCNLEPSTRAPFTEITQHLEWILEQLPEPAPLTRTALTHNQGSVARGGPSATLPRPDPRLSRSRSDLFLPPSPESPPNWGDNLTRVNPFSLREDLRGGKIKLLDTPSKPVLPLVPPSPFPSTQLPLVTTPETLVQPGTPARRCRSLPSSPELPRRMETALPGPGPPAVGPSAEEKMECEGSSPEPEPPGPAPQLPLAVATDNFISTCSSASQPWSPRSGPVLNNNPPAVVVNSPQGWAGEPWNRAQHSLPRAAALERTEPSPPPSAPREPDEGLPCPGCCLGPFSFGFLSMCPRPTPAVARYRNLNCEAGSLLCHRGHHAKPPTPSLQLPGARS
# Sequence of Dual specificity mitogen-activated protein kinase kinase 1 (Homo sapiens) (Q02750 whole entry): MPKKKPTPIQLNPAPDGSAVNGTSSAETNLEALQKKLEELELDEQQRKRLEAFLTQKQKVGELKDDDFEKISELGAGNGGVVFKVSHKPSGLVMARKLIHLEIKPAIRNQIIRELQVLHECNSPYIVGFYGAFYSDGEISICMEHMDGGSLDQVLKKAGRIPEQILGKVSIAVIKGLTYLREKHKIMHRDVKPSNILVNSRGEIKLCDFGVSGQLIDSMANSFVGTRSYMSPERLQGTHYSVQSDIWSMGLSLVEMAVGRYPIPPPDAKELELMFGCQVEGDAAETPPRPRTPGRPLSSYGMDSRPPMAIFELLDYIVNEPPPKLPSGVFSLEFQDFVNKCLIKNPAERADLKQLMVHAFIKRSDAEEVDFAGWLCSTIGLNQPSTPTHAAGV
smiles,measurement,setting,value
O=S(=O)(NC1CCC(c2cc(F)ccc2F)(S(=O)(=O)c2ccc(Cl)cc2)CC1)C(F)(F)F (stereo not given) [MRK-560],residual activity,[1],95%
same,residual activity,[2],87%
same,residual activity,[3],92%
same,residual activity,[4],86%
same,residual activity,[5],92%
same,residual activity,[6],100%
same,residual activity,[7],100%
same,residual activity,[8],97%
same,residual activity,[9],100%
same,residual activity,[10],100%
same,residual activity,[11],94%
same,residual activity,[12],90%
same,residual activity,[13],99%
same,residual activity,[14],86%
same,residual activity,[15],100%
same,residual activity,[16],100%
same,residual activity,[17],93%
same,residual activity,[18],0%
same,residual activity,[19],95%
same,residual activity,[20],100%
same,residual activity,[21],100%
same,residual activity,[22],93%
same,residual activity,[23],79%
same,residual activity,[24],100%
same,residual activity,[25],100%
same,residual activity,[26],82%
same,residual activity,[27],80%
same,residual activity,[28],100%
same,residual activity,[29],100%
same,residual activity,[30],100%
same,residual activity,[31],100%
same,residual activity,[32],100%
same,residual activity,[33],100%
same,residual activity,[34],99%
same,residual activity,[35],100%
same,residual activity,[36],95%
same,residual activity,[37],83%
same,residual activity,[38],76%
same,residual activity,[39],100%
same,residual activity,[40],100%
same,residual activity,[41],100%
same,residual activity,[42],70%
same,residual activity,[43],90%
CC(C)(C)OC(=O)N1CCCC1CNC1CCC(c2cc(F)ccc2F)(S(=O)(=O)c2ccc(Cl)cc2)CC1 (stereo not given) [GSI-NC],Ki,[44],2770 nM
same,Ki,[45],223 nM
